Key:
[1] = target: T1, human FGFR1 (Homo sapiens, UniProt P11362); assay: 33P isotope-labeled kinase activity assay (Reaction Biology Corp), FGFR1; assay type: biochemical; conditions: 33P-ATP kinase assay, ATP 5 μM, kinase 1.75 nM, substrate pEY + Mn, 120 minutes at room temperature
T1 construct: purchased Invitrogen PV3146
Protocol: (§1) The IC50 value was determined by ^33P isotope-labeled kinase activity assay (Reaction Biology Corp) to evaluate the inhibitory activity of the test compounds on human FGFR1 and FGFR4.
(§2) Buffer: 20 mM Hepes (pH 7.5), 10 mM MgCl2, 1 mM EGTA, 0.02% Brij35, 0.02 mg/mL BSA, 0.1 mM Na3VO4, 2 mM DTT, 1% DMSO.
(§3) Test procedure: the test compound was dissolved in DMSO at room temperature to prepare a 10 mM solution for use. The substrate was dissolved in a freshly prepared buffer, followed by addition of the kinase to be tested and the resulting mixture was thoroughly mixed. The solution of the test compound in DMSO was added to the above reaction solution by acoustic technique (Echo 550). The concentration of the compound in the reaction solution was 10 μM, 3.33 μM, 1.11 μM, 0.370 μM, 0.123 μM, 41.2 nM, 13.7 nM, 4.57 nM, 1.52 nM, 0.508 nM, or […], 39.1 nM, 9.8 nM, 2.4 nM, 0.61 nM, 0.15 nM, 0.038 nM. After incubation for 15 minutes, ^33P-ATP (activity 0.01 μCi/μL, corresponding concentration was listed in table 1) was added to initiate the reaction. The reaction was allowed to proceed at room temperature for 120 minutes, then the reaction solution was spotted on P81 ion exchange filter paper (Whatman #3698-915). After the filter paper was washed with 0.75% phosphoric acid solution, the radioactivity of the remained phosphorylated substrate on the filter paper was determined. The kinase activity data was expressed as a ratio of the kinase activity of the test compound to the kinase activity of the control group (DMSO), and the IC50 value was obtained by curve fitting using Prism4 software (GraphPad).

[2] = target: T2, human FGFR4 (Homo sapiens, UniProt P22455); assay: 33P isotope-labeled kinase activity assay (Reaction Biology Corp), FGFR4; assay type: biochemical; conditions: for IC50: 33P-ATP kinase assay, ATP 100 μM, kinase 2.5 nM, substrate pEY + Mn, 120 minutes at room temperature; for Inhibition activity difference (IC50 ratio) FGFR4/FGFR1: ratio of FGFR4 IC50 to FGFR1 IC50
T2 construct: purchased Invitrogen P3054
Protocol: as §1, §2, §3

T1 sequence (P11362 22-822): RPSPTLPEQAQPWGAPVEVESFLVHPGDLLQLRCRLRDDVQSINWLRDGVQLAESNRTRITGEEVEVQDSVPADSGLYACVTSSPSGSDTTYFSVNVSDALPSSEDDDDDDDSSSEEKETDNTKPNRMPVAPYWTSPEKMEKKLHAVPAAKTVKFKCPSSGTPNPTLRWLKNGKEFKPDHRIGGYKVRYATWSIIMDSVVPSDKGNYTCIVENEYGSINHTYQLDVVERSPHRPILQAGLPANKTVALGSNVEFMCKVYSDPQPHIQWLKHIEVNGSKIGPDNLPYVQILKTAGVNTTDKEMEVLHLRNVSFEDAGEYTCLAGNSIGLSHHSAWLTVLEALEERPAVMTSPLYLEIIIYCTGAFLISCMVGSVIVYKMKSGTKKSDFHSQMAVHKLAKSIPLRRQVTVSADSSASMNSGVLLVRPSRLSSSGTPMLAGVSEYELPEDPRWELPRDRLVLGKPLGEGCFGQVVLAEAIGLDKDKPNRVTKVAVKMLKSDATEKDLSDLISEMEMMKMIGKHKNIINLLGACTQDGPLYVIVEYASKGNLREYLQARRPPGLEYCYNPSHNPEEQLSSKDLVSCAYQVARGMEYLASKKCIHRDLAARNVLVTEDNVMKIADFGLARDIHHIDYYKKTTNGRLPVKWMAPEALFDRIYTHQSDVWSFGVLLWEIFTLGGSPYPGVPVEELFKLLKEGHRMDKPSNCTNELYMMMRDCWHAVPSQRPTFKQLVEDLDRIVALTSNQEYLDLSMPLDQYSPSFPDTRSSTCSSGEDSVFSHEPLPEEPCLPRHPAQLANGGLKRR
T2 sequence (P22455 22-802): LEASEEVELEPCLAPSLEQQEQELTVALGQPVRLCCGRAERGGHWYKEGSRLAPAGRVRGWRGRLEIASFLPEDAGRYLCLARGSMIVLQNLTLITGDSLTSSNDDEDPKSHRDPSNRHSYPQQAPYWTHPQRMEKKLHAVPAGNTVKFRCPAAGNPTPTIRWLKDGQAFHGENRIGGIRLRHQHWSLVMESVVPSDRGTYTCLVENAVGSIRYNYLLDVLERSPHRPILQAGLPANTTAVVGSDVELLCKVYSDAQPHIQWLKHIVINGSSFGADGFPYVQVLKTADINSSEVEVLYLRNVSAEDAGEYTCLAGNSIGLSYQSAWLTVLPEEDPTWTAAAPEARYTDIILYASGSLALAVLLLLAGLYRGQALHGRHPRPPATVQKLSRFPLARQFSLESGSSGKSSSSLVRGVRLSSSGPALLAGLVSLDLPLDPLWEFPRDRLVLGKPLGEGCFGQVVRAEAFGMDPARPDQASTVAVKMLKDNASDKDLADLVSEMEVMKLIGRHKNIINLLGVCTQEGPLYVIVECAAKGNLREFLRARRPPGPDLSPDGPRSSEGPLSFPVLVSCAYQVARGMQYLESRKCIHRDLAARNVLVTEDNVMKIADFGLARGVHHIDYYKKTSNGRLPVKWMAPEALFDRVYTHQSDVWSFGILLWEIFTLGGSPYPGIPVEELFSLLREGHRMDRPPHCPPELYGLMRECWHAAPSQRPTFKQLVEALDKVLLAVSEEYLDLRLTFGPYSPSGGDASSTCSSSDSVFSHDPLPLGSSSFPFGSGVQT

Structure (SMILES) | IC50 [1] [nM] | IC50 [2] [nM] | Inhibition activity difference (IC50 ratio) FGFR4/FGFR1 [2]
C=CC(=O)N1CCC(c2cc(C#Cc3cc(OC)cc(OC)c3)c3c(N)ncnn23)C1 (single isomer, unassigned) [Embodiment 1] | 18.3 | 125 | 7
C=CC(=O)N1CCC(c2cc(C#Cc3c(Cl)c(OC)cc(OC)c3Cl)c3c(N)ncnn23)C1 (single isomer, unassigned) [Embodiment 5] | 21.8 | 450 | 21

These reach a lower IC50 [1]. Values come first.

IC50 [1] [nM] | IC50 [2] [nM] | Inhibition activity difference (IC50 ratio) FGFR4/FGFR1 [2] | Structure (SMILES)
0.7 | 6.6 | 9 | C=CC(=O)N1CCC(c2cc(C#Cc3c(F)c(OC)cc(OC)c3F)c3c(N)ncnn23)C1 (single isomer, unassigned) [Embodiment 3]
0.3 | 4.6 | 15 | C=CC(=O)N1CCC(c2cc(C#Cc3c(Cl)c(OC)cc(OC)c3Cl)c3c(N)ncnn23)C1 (single isomer, unassigned) [Embodiment 6]
0.07 | 0.08 | 1 | C=CC(=O)N1CCC(c2cc(C#Cc3c(F)c(OC)cc(OC)c3F)c3c(N)ncnn23)C1 (single isomer, unassigned) [Embodiment 4]

Source: US11130761B2, “Substituted pyrrolo[2,1-f][1,2,4]triazines as FGFR inhibitors” (CSPC ZHONGQI PHARMACEUTICAL TECHNOLOGY (SHIJIAZHUANG) CO., …, priority 2016, dated 2021)
